From ChEMBL document CHEMBL1149249 (J Med Chem, 2004)

Legend:
Adenosine receptor A2a = Adenosine receptor A2a (Rattus norvegicus, UniProt P30543); experiment: Displacement of [3H]ZM241385 from adenosine A2A receptor in rat brain membrane; format: cell membranes
Adenosine receptor A1 = target: T1, Adenosine receptor A1 (Rattus norvegicus, UniProt P25099); experiment: Displacement of [3h]DPCPX from adenosine A receptor in rat cerebral cortex membrane
T1 sequence (P25099 whole entry): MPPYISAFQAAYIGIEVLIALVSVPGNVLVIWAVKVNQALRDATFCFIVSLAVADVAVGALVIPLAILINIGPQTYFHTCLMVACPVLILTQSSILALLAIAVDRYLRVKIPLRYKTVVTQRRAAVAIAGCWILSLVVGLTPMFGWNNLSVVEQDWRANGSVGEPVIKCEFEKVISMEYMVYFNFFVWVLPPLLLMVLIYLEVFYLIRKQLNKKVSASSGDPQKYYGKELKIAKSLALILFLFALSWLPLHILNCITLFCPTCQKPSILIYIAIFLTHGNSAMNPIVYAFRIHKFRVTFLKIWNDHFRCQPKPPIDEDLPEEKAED

Chain of Adenosine receptor A2a (P30543 whole entry): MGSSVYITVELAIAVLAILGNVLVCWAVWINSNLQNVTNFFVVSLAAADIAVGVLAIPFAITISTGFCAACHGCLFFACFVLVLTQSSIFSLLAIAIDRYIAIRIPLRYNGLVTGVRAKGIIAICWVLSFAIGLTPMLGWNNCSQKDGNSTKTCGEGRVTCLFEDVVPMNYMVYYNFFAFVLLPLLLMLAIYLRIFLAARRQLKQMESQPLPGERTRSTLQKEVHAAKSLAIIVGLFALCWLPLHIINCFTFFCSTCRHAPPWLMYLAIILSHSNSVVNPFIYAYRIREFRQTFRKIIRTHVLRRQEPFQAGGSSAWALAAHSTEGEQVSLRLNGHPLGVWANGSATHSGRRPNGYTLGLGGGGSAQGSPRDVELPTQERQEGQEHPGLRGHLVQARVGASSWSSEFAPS

Row | Structure (SMILES) | Ki (Adenosine receptor A2a) | Ki (Adenosine receptor A1)
1 | Nc1nc(N2CCN3C[C@@H](CNCc4ccncc4)CC[C@H]3C2)nc2nc(-c3ccco3)nn12 (racemic) | 36 nM (antagonist) | > 500 nM
2 | Nc1nc(N2CCN3C[C@H](COc4cc5ccccc5cn4)CC[C@H]3C2)nc2nc(-c3ccco3)nn12 (racemic) | 130 nM (antagonist) | 710 nM (antagonist)
3 | Nc1cc(N2CCN3CCC[C@H]3C2)nc2nc(-c3ccco3)nn12 | 170 nM (antagonist) | > 500 nM
4 | Nc1nc(N2CCN3C[C@@H](COc4ccc(F)cc4)CC[C@H]3C2)nc2nc(-c3ccco3)nn12 (racemic) | 4 nM (antagonist) | > 500 nM
5 | Nc1nc(N2CCN3C[C@H](COc4ccccc4)CC[C@H]3C2)nc2nc(-c3ccco3)nn12 (racemic) | 53 nM (antagonist) | > 500 nM
6 | Nc1nc(N2CCN3C[C@@H](CN(Cc4ccco4)Cc4ccco4)CC[C@H]3C2)nc2nc(-c3ccco3)nn12 | 47 nM (antagonist) | > 1000 nM
7 | Nc1nc(N2CCN3[C@@H](COc4ccccc4)CCC[C@H]3C2)nc2nc(-c3ccco3)nn12 (racemic) | 13 nM (antagonist) | > 500 nM
8 | Cc1nn(C)c(Cl)c1CN(Cc1c(C)nn(C)c1Cl)C[C@H]1CC[C@H]2CN(c3nc(N)n4nc(-c5ccco5)nc4n3)CCN2C1 | 180 nM (antagonist) | > 1000 nM
9 | Nc1nc(N2CCN3[C@@H](CO)CCC[C@H]3C2)cc2nc(-c3ccco3)nn12 (racemic) | 110 nM (antagonist) | > 500 nM
10 | Nc1nc(N2CCN3[C@@H](CO)CCC[C@H]3C2)nc2nc(-c3ccco3)nn12 (racemic) | 3 nM (antagonist) | 1300 nM
11 | Nc1nc(N2CCN3C[C@@H](COc4ccccn4)CC[C@H]3C2)nc2nc(-c3ccco3)nn12 (racemic) | 20 nM (antagonist) | > 1000 nM
12 | Nc1nc(N2CCN3C[C@@H](CN(Cc4ccncc4)Cc4ccncc4)CC[C@H]3C2)nc2nc(-c3ccco3)nn12 (racemic) | 3 nM (antagonist) | 6000 nM
13 | Nc1nc(N2CCN3C[C@@H](COc4ccccc4)CC[C@H]3C2)nc2nc(-c3ccco3)nn12 (racemic) | 21 nM (antagonist) | > 500 nM
14 | Nc1nc(N2CCN3C[C@@H](CNCc4ccc(F)cc4F)CC[C@H]3C2)nc2nc(-c3ccco3)nn12 | 2 nM (antagonist) | 1100 nM
15 | Nc1nc(N2CCN3C[C@@H](COc4ccccc4F)CC[C@H]3C2)nc2nc(-c3ccco3)nn12 (racemic) | 0.9 nM (antagonist) | > 500 nM
16 | Nc1nc(N2CCN3C[C@H](COc4cccc5cnccc45)CC[C@H]3C2)nc2nc(-c3ccco3)nn12 (racemic) | 73 nM (antagonist) | 210 nM (antagonist)
17 | Nc1nc(N2CCN3C[C@@H](Cn4cnnn4)CC[C@H]3C2)nc2nc(-c3ccco3)nn12 (racemic) | 14 nM (antagonist) | > 500 nM
18 | COc1ccc(OC[C@@H]2CC[C@H]3CN(c4nc(N)n5nc(-c6ccco6)nc5n4)CCN3C2)cc1 (racemic) | 70 nM (antagonist) | > 500 nM
19 | Nc1cc(N2CCN3[C@@H](COc4ccc5cccnc5c4)CCC[C@H]3C2)nc2nc(-c3ccco3)nn12 (racemic) | 830 nM (antagonist) | > 500 nM
20 | Nc1cc(N2CCN3C[C@@H](COc4ccccc4)CC[C@H]3C2)nc2nc(-c3ccco3)nn12 (racemic) | 45 nM (antagonist) | > 500 nM

Row | Structure (SMILES) | Ki (Adenosine receptor A2a) | Ki (Adenosine receptor A1)
21 | NC[C@@H]1CC[C@H]2CN(c3cc(N)n4nc(-c5ccco5)nc4n3)CCN2C1 | 370 nM (antagonist) | > 500 nM
22 | Nc1nc(N2CCN3C[C@@H](COc4ncnc5ccccc45)CC[C@H]3C2)nc2nc(-c3ccco3)nn12 (racemic) | 19 nM (antagonist) | > 500 nM
23 | Nc1nc(N2CCN3C[C@H](COc4ncnc5ccccc45)CC[C@H]3C2)nc2nc(-c3ccco3)nn12 (racemic) | 37 nM (antagonist) | > 1000 nM
24 | Cn1nc(C(F)(F)F)c(CN2CCN3C[C@@H](CNc4nc(N)n5nc(-c6ccco6)nc5n4)CC[C@@H]3C2)c1Cl (racemic) | > 500 nM | > 1000 nM
25 | Nc1nc(N2CCN3C[C@@H](CNCc4cccnc4)CC[C@H]3C2)nc2nc(-c3ccco3)nn12 | 51 nM (antagonist) | > 500 nM
26 | Nc1nc(N2CCN3C[C@@H](CNc4ncccn4)CC[C@H]3C2)cc2nc(-c3ccco3)nn12 | 47 nM (antagonist) | > 1000 nM
27 | COC(=O)c1nc(Cl)c(N2CCN3C[C@H](CNc4nc(N)n5nc(-c6ccco6)nc5n4)CC[C@@H]3C2)nc1N (racemic) | 34 nM (antagonist) | > 1000 nM
28 | Nc1nc(N2CCNCC2)nc2nc(-c3ccco3)nn12 | > 5000 nM | –
29 | Nc1nc(N2CCN3C[C@@H](CNc4ncccn4)CC[C@H]3C2)nc2nc(-c3ccco3)nn12 (racemic) | 9 nM (antagonist) | 1500 nM
30 | Nc1cc(N2CCN3CCCCC3C2)nc2nc(-c3ccco3)nn12 (racemic) | 38 nM (antagonist) | > 500 nM
31 | Nc1nc(NC[C@@H]2CC[C@@H]3CN(Cc4ccc(F)cc4F)CCN3C2)cc2nc(-c3ccco3)nn12 | 230 nM (antagonist) | > 1000 nM
32 | NC[C@@H]1CC[C@H]2CN(c3nc(N)n4nc(-c5ccco5)nc4n3)CCN2C1 | 2 nM (antagonist) | 3500 nM
33 | Nc1nc(N2CCN3C[C@H](COc4ccc5ccccc5n4)CC[C@H]3C2)nc2nc(-c3ccco3)nn12 | 7 nM (antagonist) | > 1000 nM
34 | Nc1nc(N2CCN3C[C@@H](CN(Cc4ccccn4)Cc4ccccn4)CC[C@H]3C2)nc2nc(-c3ccco3)nn12 | 9 nM (antagonist) | > 500 nM
35 | Nc1nc(N2CCN3C[C@@H](CN(Cc4ccc(F)cc4F)Cc4ccc(F)cc4F)CC[C@H]3C2)nc2nc(-c3ccco3)nn12 | > 500 nM | > 1000 nM
36 | Nc1nc(NC[C@@H]2CC[C@@H]3CN(c4cc(F)cc(F)c4)CCN3C2)nc2nc(-c3ccco3)nn12 (racemic) | 49 nM (antagonist) | > 500 nM
37 | Nc1nc(N2CCN3C[C@H](CO)CC[C@H]3C2)nc2nc(-c3ccco3)nn12 (racemic) | 71 nM (antagonist) | 6100 nM
38 | Nc1nc(N2CCN3C[C@@H](COc4ncnc5[nH]ncc45)CC[C@@H]3C2)nc2nc(-c3ccco3)nn12 (racemic) | 5 nM (antagonist) | > 500 nM
39 | Nc1nc(N2CCN3C[C@@H](COc4cccc5cnccc45)CC[C@H]3C2)nc2nc(-c3ccco3)nn12 (racemic) | 6 nM (antagonist) | 3500 nM
40 | Nc1nc(N2CCN3C[C@H](COc4ccncc4)CC[C@H]3C2)nc2nc(-c3ccco3)nn12 (racemic) | 81 nM (antagonist) | > 1000 nM

Row | Structure (SMILES) | Ki (Adenosine receptor A2a) | Ki (Adenosine receptor A1)
41 | Nc1nc(N2CCN3C[C@H](CO)CC[C@H]3C2)cc2nc(-c3ccco3)nn12 (racemic) | 240 nM (antagonist) | > 1000 nM
42 | Nc1nc(N2CCN3C[C@H](CNc4ncccn4)CC[C@H]3C2)nc2nc(-c3ccco3)nn12 | 45 nM (antagonist) | > 1000 nM
43 | Nc1nc(N2CCN3C[C@@H](COc4ccncc4)CC[C@H]3C2)nc2nc(-c3ccco3)nn12 (racemic) | 25 nM (antagonist) | > 1000 nM
44 | Nc1cc(N2CCN3[C@@H](COc4ccc5[nH]ccc5c4)CCC[C@H]3C2)nc2nc(-c3ccco3)nn12 (racemic) | 76 nM (antagonist) | > 1000 nM
45 | Nc1cc(N2CCN3[C@@H](COc4cccnc4)CCC[C@H]3C2)nc2nc(-c3ccco3)nn12 (racemic) | 80 nM (antagonist) | > 500 nM
46 | Nc1nc(N2CCN3C[C@H](COc4ccccn4)CC[C@H]3C2)nc2nc(-c3ccco3)nn12 (racemic) | 41 nM (antagonist) | > 500 nM
47 | Nc1nc(N2CCN3CCCCC3C2)nc2nc(-c3ccco3)nn12 (racemic) | 12 nM (antagonist) | 860 nM (antagonist)
48 | Nc1nc(N2CCN3C[C@H](CN(Cc4cccnc4)Cc4cccnc4)CC[C@H]3C2)nc2nc(-c3ccco3)nn12 | 4 nM (antagonist) | 7800 nM
49 | NC[C@H]1CC[C@H]2CN(c3nc(N)n4nc(-c5ccco5)nc4n3)CCN2C1 (racemic) | 16 nM (antagonist) | > 500 nM
50 | Nc1nc(N2CCN3C[C@@H](CN(Cc4cccnc4)Cc4cccnc4)CC[C@H]3C2)nc2nc(-c3ccco3)nn12 | 2 nM (antagonist) | > 1000 nM
51 | Nc1cc(N2CCN3[C@@H](CO)CCC[C@H]3C2)nc2nc(-c3ccco3)nn12 (racemic) | 610 nM (antagonist) | > 500 nM
52 | COc1ccc(OC[C@H]2CC[C@H]3CN(c4nc(N)n5nc(-c6ccco6)nc5n4)CCN3C2)cc1 (racemic) | 35 nM (antagonist) | > 500 nM
53 | NC[C@H]1CC[C@H]2CN(c3cc4nc(-c5ccco5)nn4c(N)n3)CCN2C1 | 56 nM (antagonist) | > 500 nM
54 | Nc1nc(N2CCN3C[C@@H](Cn4cncn4)CC[C@H]3C2)nc2nc(-c3ccco3)nn12 (racemic) | 4 nM (antagonist) | > 500 nM
55 | Cc1nn(C)c(Cl)c1CNC[C@H]1CC[C@H]2CN(c3nc(N)n4nc(-c5ccco5)nc4n3)CCN2C1 | 30 nM (antagonist) | > 500 nM
56 | Nc1nc(N2CCN3C[C@@H](Cn4ccnc4)CC[C@H]3C2)nc2nc(-c3ccco3)nn12 (racemic) | 0.3 nM (antagonist) | 1200 nM
57 | Nc1nc(N2CCN3C[C@@H](COc4cc5ccccc5cn4)CC[C@H]3C2)nc2nc(-c3ccco3)nn12 (racemic) | 36 nM (antagonist) | > 1000 nM
58 | Nc1nc(N2CCN3CCCCC3C2)cc2nc(-c3ccco3)nn12 (racemic) | 140 nM (antagonist) | > 500 nM
